Counter-ions that a name gives are not always drawn.
Key:
[1] = target: rat TAAR1 (Rattus norvegicus (Rat), UniProt Q923Y9); test: Radioligand binding assay on rat TAAR1; details: for Ki: rat TAAR1, membranes of HEK-293 cells, second value of the cell pair mouse/rat
Description: (§1) For the construction of expression plasmids the coding sequences of human, rat and mouse TAAR 1 were amplified from genomic DNA essentially as described by Lindemann et al.. The Expand High Fidelity PCR System (Roche Diagnostics) was used with 1.5 mM Mg^2+ and purified PCR products were cloned into pCR2.1-TOPO cloning vector (Invitrogen) following the instructions of the manufacturer. PCR products were subcloned into the pIRESneo2 vector (BD Clontech, Palo Alto, Calif.), and expression vectors were sequence verified before introduction in cell lines.
(§2) HEK293 cells (ATCC # CRL-1573) were cultured essentially as described by Lindemann et al. (2005). For the generation of stably transfected cell lines HEK293 cells were transfected with the pIRESneo2 expression plasmids containing the TAAR coding sequences (described above) with Lipofectamine 2000 (Invitrogen) according to the instructions of the manufacturer, and 24 hrs post transfection the culture medium was supplemented with 1 mg/ml G418 (Sigma, Buchs, Switzerland). After a culture period of about 10 d clones were isolated, expanded and tested for responsiveness to trace amines (all compounds purchased from Sigma) with the cAMP Biotrak Enzyme immunoassay (EIA) System (Amersham) following the non-acetylation EIA procedure provided by the manufacturer.
(B) Radioligand Binding Assay on Rat TAAR1
(§3) Membrane Preparation and Radioligand Binding.
(§4) HEK-293 cells stably expressing rat TAAR1 were maintained at 37° C. and 5% CO2 in DMEM high glucose medium, containing fetal calf serum (10%, heat inactivated for 30 min at 56° C.), penicillin/streptomycin (1%), and 375 μg/ml geneticin (Gibco). Cells were released from culture flasks using trypsin/EDTA, harvested, washed twice with ice-cold PBS (without Ca^2+ and Mg^2+), pelleted at 1,000 rpm for 5 min at 4° C., frozen and stored at −80° C. Frozen pellets were suspended in 20 ml HEPES-NaOH (20 mM, pH 7.4) containing 10 mM EDTA and homogenized with a Polytron (PT 6000, Kinematica) at 14,000 rpm for 20 s. The homogenate was centrifuged at 48,000×g for 30 min at 4° C. Subsequently, the supernatant was removed and discarded, and the pellet resuspended in 20 ml HEPES-NaOH (20 mM, pH 7.4) containing 0.1 mM EDTA using the Polytron (20 s at 14,000 rpm). This procedure was repeated and the final pellet resuspended in HEPES-NaOH containing 0.1 mM EDTA and homogenized using the Polytron. Typically, aliquots of 2 ml membrane portions were stored at −80° C. With each new membrane batch the dissociation constant (Kd) was determined via a saturation curve. […] Nonspecific binding was defined as the amount of ^3[H]-(S)-4-[(ethyl-phenyl-amino)-methyl]-4,5-dihydro-oxazol-2-ylamine bound in the presence of 10 μM unlabeled ligand. All compounds were tested at a broad range of concentrations (10 pM to 10 μM) in duplicates. […] The 96 deep well plates were incubated for 1 hr at 4° C. Incubations were terminated by rapid filtration through Unifilter-96 plates (Packard Instrument Company) and glass filters GF/C (Perkin Elmer) presoaked for 1 hr in polyethylenimine (0.3%) and washed 3 times with 1 ml of cold binding buffer. After addition of 45 μl of Microscint 40 (PerkinElmer) the Unifilter-96 plate was sealed and after 1 hr the ratioactivity counted using a TopCount Microplate Scintillation Counter (Packard Instrument Company).

[2] = target: mouse TAAR1 (Mus musculus (Mouse), UniProt Q923Y8); test: Radioligand binding assay on mouse TAAR1; details: for Ki: mouse TAAR1, membranes of HEK-293 cells, first value of the cell pair mouse/rat
Sequence of mouse TAAR1 (Q923Y8 whole entry): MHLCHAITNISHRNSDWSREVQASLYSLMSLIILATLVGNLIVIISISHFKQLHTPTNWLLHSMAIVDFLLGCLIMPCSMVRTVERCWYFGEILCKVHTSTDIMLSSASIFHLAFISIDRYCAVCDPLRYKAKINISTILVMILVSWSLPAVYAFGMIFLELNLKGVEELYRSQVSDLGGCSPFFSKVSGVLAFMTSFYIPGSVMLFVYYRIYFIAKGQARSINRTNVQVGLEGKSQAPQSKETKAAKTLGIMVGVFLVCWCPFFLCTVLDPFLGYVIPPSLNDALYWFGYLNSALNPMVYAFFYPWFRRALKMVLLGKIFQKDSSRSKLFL
Description: as §1, §2
(A) Radioligand Binding Assay on Mouse TAAR1
as §3
as §4, with “expressing mouse” for “expressing rat”

Sequence of rat TAAR1 (Q923Y9 whole entry): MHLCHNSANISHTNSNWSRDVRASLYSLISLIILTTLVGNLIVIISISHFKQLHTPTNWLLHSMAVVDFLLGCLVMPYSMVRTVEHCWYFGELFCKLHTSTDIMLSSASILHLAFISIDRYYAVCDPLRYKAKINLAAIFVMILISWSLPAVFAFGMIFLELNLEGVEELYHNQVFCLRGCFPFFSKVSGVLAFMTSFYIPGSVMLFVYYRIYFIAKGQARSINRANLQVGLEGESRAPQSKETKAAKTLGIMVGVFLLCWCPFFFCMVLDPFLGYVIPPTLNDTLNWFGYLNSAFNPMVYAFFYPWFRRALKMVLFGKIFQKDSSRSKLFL

| Compound | Ki [1] [µM] | Ki [2] [µM] | further results |
| --- | --- | --- | --- |
| Fc1ccc([C@@H]2COC(c3ccc([C@H]4CNCCO4)cc3)=N2)cc1 [Example 22, (S)-2-{4-[(R)-4-(4-Fluoro-phenyl)-4,5-dihydro-oxazol-2-yl]-phenyl}-morpholine] | 1.51 | 0.0318 |  |
| Clc1ccc(-c2cc(-c3ccc([C@@H]4CNCCO4)cc3)n[nH]2)cn1 [Example 38, (R)-2-{4-[5-(6-Chloro-pyridin-3-yl)-1H-pyrazol-3-yl]-phenyl}-morpholine hydrochloride] | 0.0257 | 0.0027 |  |
| Clc1ccc(-c2cc(-c3ccc([C@H]4CNCCO4)cc3)n[nH]2)cn1 [Example 37, (S)-2-{4-[5-(6-Chloro-pyridin-3-yl)-1H-pyrazol-3-yl]-phenyl}-morpholine hydrochloride] | 0.304 | 0.004 |  |
| Fc1ccc(-c2cc(-c3ccc(C4CNCCO4)cc3)n[nH]2)cc1 (stereo not drawn) [Example 4, 2-(4-(5-(4-Fluorophenyl)-1H-pyrazol-3-yl)phenyl)morpholine hydrochloride] | 0.0059 | 0.0012 |  |
| Fc1ccc(-n2cc(-c3ccc([C@H]4CNCCO4)cc3)cn2)cc1 [Example 19, (S)-2-(4-(1-(4-Fluorophenyl)-1H-pyrazol-4-yl)phenyl)morpholine hydrochloride] | 0.0669 | 0.0015 |  |
| Clc1cnc2[nH]c3ccc([C@H]4CNCCO4)cc3c2c1 [Example 47, (S)-2-(3-Chloro-9H-pyrido[2,3-b]indol-6-yl)morpholine hydrochloride] | 0.075 | 0.0032 |  |
| Fc1ccc(-c2cc(-c3ccc([C@H]4CNCCO4)cc3F)n[nH]2)cc1 [Example 40, (S)-2-(3-Fluoro-4-(5-(4-fluorophenyl)-1H-pyrazol-3-yl)phenyl)morpholine hydrochloride] | 0.0155 | 0.0012 |  |
| Clc1cccc(-c2cc(-c3ccc([C@H]4CNCCO4)cc3)n[nH]2)c1 [Example 9, (S)-2-(4-(5-(3-Chlorophenyl)-1H-pyrazol-3-yl)phenyl)morpholine hydrochloride] | 0.0021 | 0.0004 |  |
| FC(F)(F)c1cnc2[nH]c3ccc([C@@H]4CNCCO4)cc3c2c1 [Example 50, (R)-2-(3-(Trifluoromethyl)-9H-pyrido[2,3-b]indol-6-yl)morpholine hydrochloride] |  |  | Ki ([1]; hydrochloride): 0.0303 µM; Ki ([2]; hydrochloride): 0.0082 µM |
| N#Cc1ccc(-c2cc(-c3ccc([C@@H]4CNCCO4)cc3)n[nH]2)cc1 [Example 32, (R)-4-(3-(4-(Morpholin-2-yl)phenyl)-1H-pyrazol-5-yl)benzonitrile hydrochloride] | 0.0154 | 0.0019 |  |
| FC(F)(F)c1ccc(-c2nc3ccc([C@@H]4CNCCO4)cc3o2)cn1 [Example 53, (R)-6-(Morpholin-2-yl)-2-(6-(trifluoromethyl)pyridin-3-yl)benzo[d]oxazole hydrochloride] | 0.226 | 0.0463 |  |
| FC(F)(F)c1cnc2[nH]c3ccc([C@@H]4CNCCO4)cc3c2c1 [Example 48, (R)-2-(3-(Trifluoromethyl)-9H-pyrido[2,3-b]indol-6-yl)morpholine hydrochloride] |  |  | Ki ([1]; hydrochloride): 0.0639 µM; Ki ([2]; hydrochloride): 0.0081 µM |
| N#Cc1ccc(-c2cc(-c3ccc([C@H]4CNCCO4)cc3)n[nH]2)cc1 [Example 28, (S)-4-(3-(4-(Morpholin-2-yl)phenyl)-1H-pyrazol-5-yl)benzonitrile hydrochloride] | 0.0168 | 0.001 |  |
| CCN(C[C@H]1COC(N)=N1)c1ccccc1 [^3[H]-(S)-4-[(ethyl-phenyl-amino)-methyl]-4,5-dihydro-oxazol-2-ylamine, reference compound] |  |  | Kd ([1]; rat TAAR1, saturation curve, usual value per membrane batch, read-out: dissociation constant (Kd) of the radioligand): ~2.3 nM; Kd ([2]; mouse TAAR1, saturation curve, usual value per membrane batch, read-out: dissociation constant (Kd) of the radioligand): ~0.7 nM |
| c1cc([C@H]2CNCCO2)ccc1-c1cc(C2CCOCC2)[nH]n1 [Example 24, (S)-2-(4-(5-(Tetrahydro-2H-pyran-4-yl)-1H-pyrazol-3-yl)phenyl)morpholine hydrochloride] | 0.0722 | > 20 |  |
| O=C(Nc1n[nH]c2cc(C3CNCCO3)ccc12)c1ccc(F)cc1 (stereo not drawn) [Example 21, 4-Fluoro-N-(6-(morpholin-2-yl)-1H-indazol-3-yl)benzamide hydrochloride] | 0.895 | 0.0617 |  |
| Fc1ccc(-c2cc(-c3ccc([C@@H]4CNCCO4)cc3)n[nH]2)cc1 [Example 31, (R)-2-(4-(5-(4-Fluorophenyl)-1H-pyrazol-3-yl)phenyl)morpholine hydrochloride] | 0.0036 | 0.001 |  |
| Fc1ccc(-c2cc(-c3ccc([C@@H]4CNCCO4)cc3F)n[nH]2)cc1 [Example 41, (R)-2-(3-Fluoro-4-(5-(4-fluorophenyl)-1H-pyrazol-3-yl)phenyl)morpholine hydrochloride] | 0.0043 | 0.0011 |  |
| Clc1ccc(-c2cc(-c3ccc(C4CNCCO4)cc3)n[nH]2)cc1 (stereo not drawn) [Example 3, 2-(4-(5-(4-Chlorophenyl)-1H-pyrazol-3-yl)phenyl)morpholine hydrochloride] | 0.0034 | 0.001 |  |
| FC(F)(F)c1cnc2[nH]c3ccc([C@H]4CNCCO4)cc3c2c1 [Example 46, (S)-2-(3-(Trifluoromethyl)-9H-pyrido[2,3-b]indol-6-yl)morpholine hydrochloride] | 0.0698 | 0.0023 |  |
| Fc1ccc(-n2cc(-c3ccc([C@@H]4CNCCO4)cc3)cn2)cc1 [Example 26, (R)-2-(4-(1-(4-Fluorophenyl)-1H-pyrazol-4-yl)phenyl)morpholine hydrochloride] | 0.0122 | 0.0006 |  |
| Fc1ccc(-c2nc(-c3ccc([C@H]4CNCCO4)cc3)n[nH]2)cc1 [Example 20, (S)-2-(4-(5-(4-Fluorophenyl)-1H-1,2,4-triazol-3-yl)phenyl)morpholine hydrochloride] | 0.0779 | 0.0012 |  |
| N#Cc1ccc(-c2cc(-c3ccc(C4CNCCO4)cc3)n[nH]2)cc1 (stereo not drawn) [Example 6, 4-(3-(4-(Morpholin-2-yl)phenyl)-1H-pyrazol-5-yl)benzonitrile hydrochloride] | 0.0335 | 0.0019 |  |
| Clc1ccc(-c2cc(-c3ccc(C4CNCCO4)cc3)n[nH]2)cn1 (stereo not drawn) [Example 5, 2-(4-(5-(6-Chloropyridin-3-yl)-1H-pyrazol-3-yl)phenyl)morpholine hydrochloride] | 0.0631 | 0.0044 |  |

Reference: US9181230B2, “Morpholine compounds and uses thereof” (Hoffmann-La Roche Inc., priority 2013, dated 2015)
